Series [1] can be described thus: PAMPA model of passive BBB permeability. In kind it is in vitro ADME. As to conditions: PAMPA; passive transport; pH 7.4; 18 hrs; read-out: Effective permeability (pe), PAMPA. The protocol:
PAMPA is used as an in vitro model of passive BBB permeability. An artificial membrane immobilized on a filter is placed between a donor and acceptor compartment. At the start of the test, a drug is introduced in the donor compartment. Following the permeation period, the concentration of the drug in the donor and acceptor compartments are measured using UV spectroscopy. Therefore the permeability of any compound with a UV chromophore can be determined by this method.
The tested compound stock solutions were diluted 200-fold in universal buffer at pH 7.4 and added to the donor wells. The filter membrane was coated with PBL in dodecane and the acceptor well was filled with pH 7.4 buffer. The acceptor filter plate was carefully put on the donor plate to form a ‘sandwich’ (consisting of the aqueous donor with test the compound on the bottom, an artificial lipid membrane in the middle, and an aqueous acceptor on the top). The test compound diffused from the donor well through the lipid membrane and into the acceptor well. The ‘sandwich’ was left undisturbed for 18 hrs while the permeation occurred. The concentration of the test compound in the acceptor, the donor, and the reference wells was determined using the UV plate reader. Effective permeability (Pe) of each compound was calculated by using the pION PSR4p software. Samples were analyzed in triplicate and the average of the three runs was reported. Quality control standards were run with each sample set to monitor the consistency of the analysis set.

Series [2] deals with PC12 cells. Put plainly: Synergistic activity assay (PC12 differentiation in combination with NGF). The format is cell-based. The conditions noted are these: NGF alone 100 ng/ml. The protocol: To evaluate if the small molecules G79, G80, and G81 interfere with the maximal activity of NGF or lead to additive effects, PC12 cells were plated into collagen-coated 24-wells plates with 2.5% FBS and treated after 72 h with the small chemicals (each one at 100 ng/ml) in combination with NGF at the concentration of 100 ng/ml. In the same experiment PC12 cells were treated with the small molecules or NGF alone, as controls. The number of differentiated cells was evaluated after three days of treatment. The cell count was done in three randomly selected fields with 100 cells.

The test system of series [3] is retinal ganglion cells (RGC). The series can be described thus: Glaucoma model, count of retinal ganglion cells. In kind it is in vivo, Sprague Dawley rats. The conditions noted are these: first experiment; eye drops, NGF 200, G79 200 and 400 μg/ml. The protocol:
12 Sprague Dawley rats (4 months of age) were anesthetized with […] and subjected to hypertonic saline solution injection into the episcleral vein of the right eye. Intraocular pressure (IOP) was measured before the operation and was monitored one time a week using a TonoLab for 7 weeks. Treatment with G79 was begun one week after glaucoma induction by topical application at the conjunctive. Two different experiments were performed.
In the first experiment, G79 was dissolved into physiological solution and was used at two different concentration (200 μg/ml and 400 μg/ml). NGF was used as positive control (200 μg/ml) and the physiological solution, used to dissolve all the molecules, was subministered as placebo. The animals were divided into 4 groups (3 animals in each group): glaucoma-G79 200 μg/ml; glaucoma-G79 […]; glaucoma-NGF; glaucoma-placebo. The left eye was used as the control without glaucoma. In both experiments, seven weeks after glaucoma induction, animals were sacrificed by overdose of anaesthetic and their eyes were taken and fixed in 4% of PFA. The eyes were included in paraffin and cut into 20 μm sections to be used for histological studies (hematoxilin-eosin staining). The cell count of the number of retinal ganglion cells (RGC) was performed randomly in ten different fields for each eye.
Rats were injected with a hypertonic solution in the eye that induced high intraocular pressure for five weeks. Animals were treated with eye drops of NGF ([…]), G79 ([…]) or placebo every day for five weeks. Animals with glaucoma and treated with placebo (saline) have a significant decrease in the number of retinal ganglion cells compared with control.
In the second experiment, G79 at the concentration of 200 μg/ml was used. The objective of this second experiment was to compare the efficacy of G79 to Timolol, the most common therapy for glaucoma that works by decreasing the intraocular pressure. Also in this experiment, a combination treatment with G79 and Timolol was performed. […]

The subject of series [4] is PC12 cells. The series can be described thus: Signalling inhibition assays (PC12 differentiation with LY294002 or PD98059). In kind it is cell-based. The protocol: To evaluate if the transduction pathway induced by G79, G80, and G81 involves AKT and ERK activation, PC12 cell were treated with the test compounds in the presence of LY294002, an inhibitor of PI3K (an upstream activator of AKT) and PD98059, an inhibitor of MAPK kinase (an upstream activator of ERK). For this purpose, PC12 cells were plated into collagen-coated 24-wells plates with 2.5% FBS and after 72 hrs the cells were treated with the small molecules in combination with LY294002 (Sigma Aldrich, 10 μM) or PD98059 (Sigma Aldrich, 50 μM). NGF (100 ng/ml) was used as control and added alone or in combination with the inhibitors.

In series [5] the test system is PC12 cells. Put plainly: Secretagogue activity assay (PC12 differentiation with antibody anti-NGF). The format is cell-based. The protocol: To assess if the tested compounds, G79, G80, and G81, act as secretagogues, inducing neurotrophic activity through the synthesis of NGF, PC12 cells were plated into collagen-coated 24-wells plates with only 2.5% FBS and after 72 hrs the cells were treated with the tested compounds (each one at 100 ng/ml) together with antibody anti-NGF (1 μg/ml, AbCam). After three days of treatment, the differentiation was evaluated. The cell count was done in three randomly selected fields with 100 cells.

Series [6] has as its system PC12 cells. The series can be described thus: Receptor activation assay (PC12 differentiation with anti-TrkA antibody). The format is cell-based. The protocol:
The hypothesis that G79, G80, and G81 can act through the binding to the extracellular portion of TrkA (binding site) and activate the tyrosine kinase receptor was tested by treating the PC12 cells with the small chemicals in combination with the antibody anti-TrkA or the K252a, a tyrosine kinase inhibitor. For this purpose PC12 cells were plated into collagen-coated 24-wells plates with 2.5% FBS and after 72 hrs were incubated with the small molecules alone or in combination with anti-TrkA antibody (AbCam, 1:2000) or K252a. NGF (100 ng/ml) was used as control and added alone or in combination with anti-TrkA antibody or K252a. The number of differentiated cells was evaluated after three days of treatment. The cell count was done in three randomly selected fields with 100 cells.

Series [7] has as its system PC12 cells. The series can be described thus: Dose response differentiation assay in PC12 cell line. The format is cell-based. The conditions noted are these: 100 ng/ml; after 3 days of treatment. The protocol:
Stock of PC12 cultures were maintained in Ham's F12 medium supplemented with 2.5% fetal bovine serum (FBS), 15% of horse serum (HS) and 1% penicillin/streptomycin. The cell culture was maintained in 5% CO2 at 37° C.
PC12 cell differentiation was assessed by treating the cells with all the test compounds (G79, G80, and G81) at different testing concentration (2-20-100 ng/ml and 2-20-50 μg/ml). The cells were first plated into collagen-coated 24-wells plates with 2.5% FBS in the medium to be de-differentiated. After 72 hrs, the test compounds were added and NGF (Sigma Aldrich; 100 ng/ml) as positive control of differentiation. The number of differentiated cells, with neurite processes greater than two cell bodies in length, is counted after 3 days of treatment. The cell count is done in three randomly selected fields with 100 cells.

Another series concerns NSC-34 cells. Put plainly: In vitro model of ALS, serum deprivation of motoneuron-like cells (MTT). As to conditions: G-CSF 2 μg/ml; serum deprivation 48 h. The format is cell-based, mouse. The protocol: Mouse motoneuron-like cells NCS-34 were cultured in DMEM (Gibco) supplemented with 10% heat inactivated FBS and 1% penicillin/streptomycin. The cell culture was maintained in a humidified atmosphere of 95% air and CO2 at 37° C.
The nutritional deprivation stress in motorneurons was conducted as described previously in Masahito T. et al., J. Neuropathol. Exp. Neurol. 65(8):816-825 (2006). To assess the effect of trophic stress condition on ALS, the presence of apoptosis was investigated using serum deprivation. NSC-34 cells were seeded in 24-well poly-lysinated plates at 30,000 cells/well and preincubated for 24 h in DMEM plus 10% FBS with various doses of G79, G80, and G81 (20 ng/ml, 100 ng/ml, 2 μg/ml, 20 μg/ml, 50 μg/ml), and G-CSF (2 μg/ml) or BDNF (20 ng/ml) which both were used as positive controls (Masahito T. et al., ibid; Elliot J. L., Neurobiology of Disease 6:310-320 (1999)). Then, the medium was removed and replaced with fresh DMEM without FBS. After 48 h, cell viability was assayed by MTT assay, as described previously.

Turning to `NC(=O)N1c2ccccc2C=Cc2ccccc21` [carbamazepine], the Papp at 18 h in series [1] amounted to 10.3 ×10⁻⁶ cm/s.

Regarding `CC(C)NCC(O)COc1cccc2ccccc12` (stereo not shown) [propanolol], the Papp at 18 h in series [1] was 11.5 ×10⁻⁶ cm/s.

For “NGF: homodimeric protein from the neurotrophin family; positive control of differentiation and survival”, the “number of differentiated cells” value in the series on PC12 cells [2] was 20±7.1; in the series on PC12 cells [4] (plus LY294002 (10 μM), inhibitor of PI3K) it was 6.8±2.7; in the series on PC12 cells [4] (plus PD98059 (50 μM), inhibitor of MAPK kinase) it was 2.1±1.9; in the series with PC12 cells [4] (treatment alone) it was 20.7±7.1; in the series on PC12 cells [6] (in combination with anti-TrkA antibody (1:2000)) it was 12.8±6.3; in the series on PC12 cells [6] (treatment alone), 20.7±7.1. Besides, the “protection of retinal ganglion cells (number of RGC vs glaucoma-placebo)” value in series [3] is on record as “significant protection of the ganglion cells”. In addition, the “number of differentiated cells for each field” value was found to be 12.8±6.3 with PC12 cells [5] (100 ng/ml together with antibody anti-NGF (1 μg/ml)) and 20.7±7.1 in the series on PC12 cells [5] (100 ng/ml, treatment alone). Also, in the series with PC12 cells [7], the “number of differentiated cells in a field of 100 cells” value was 16.1±1.9 cells.

B1: G-CSF: positive control (2 μg/ml) in the in vitro model of ALS (protein, UniProt P09919 31-207, looked up)
Granulocyte …: TPLGPASSLPQSFLLKCLEQVRKIQGDGAALQEKLVSECATYKLCHPEELVLLGHSLGIPWAPLSSCPSQALQLAGCLSQLHSGLFLYQGLLQALEGISPELGPTLDTLQLDVADFATTIWQQMEELGMAPALQPTQGAMPAFASAFQRRAGGVLVASHLQSFLEVSYRVLRHLAQP
As for B1, the “cell viability, percentage relative to the control without stress” value in the series on NSC-34 cells is listed as 76.50±8.3%.
